Data reported in patent US6372717B1, “Synthetic peptides and their use in cosmetic or dermopharmaceutical compositions” (Sederma S.A., priority 1999, dated 2002).

System: human skin
Experiment: activity by topical application
Assay type: in vivo
Source text: The object of the present invention is the discovery that this peptide, and above all the lipophile derivatives of the peptide, have a calming, antalgic activity when applied to the human skin in a suitable cosmetic or dermopharmaceutical preparation.

N=C(N)NCCC[C@H](NC(=O)[C@@H](N)Cc1ccc(O)cc1)C(=O)O [H-L-Tyr-L-Arg-OH]
activity by topical application: only a slight activity
